Consider five compounds from patent publication US11331369B2, “Endoparasitic depsipeptides” (Zoetis Services LLC, priority 2017, dated 2022).

Each structure is given as a SMILES string. Where a name gives a salt, the structure may show the parent alone.

Assay [1] deals with third stage larvae of Haemonchus contortus. Briefly: Haemonchus contortus L3 (HcL3) Assay. As to conditions: 96 h, read-out: HcL3 Minimum Effective Dose (MED). Format: cell-based.
The test system of assay [2] is microfilariae of Dirofilaria immitis. Put plainly: Dirofilaria immitis, Microfilaria (DiMF) In vitro Assay. The format is cell-based. As to conditions: 72 h, read-out: DiMF Minimum Effective Dose (MED), approximately 72 hours incubation, microfilariae assessed for survival or paralysis.

`CC(C)C[C@H]1C(=O)O[C@H](Cc2ccc(Cn3nc(CO)cc3C3CC3)cc2)C(=O)N(C)[C@@H](CC(C)C)C(=O)O[C@H](C)C(=O)N(C)[C@@H](CC(C)C)C(=O)O[C@H](Cc2ccc(Cn3nc(C#N)cc3C#N)cc2)C(=O)N(C)[C@@H](CC(C)C)C(=O)O[C@H](C)C(=O)N1C` [Example 1a-10, 1-(4-(((2R,5S,8R,11S,14R,17S,20R,23S)-14-(4-((5-cyclopropyl-3-(hydroxymethyl)-1H-pyrazol-1-yl)methyl)benzyl)-5,11,17,23-tetraisobutyl-4,8,10,16,20,22-hexamethyl-3,6,9,12,15,18,21,24-octaoxo-1,7,13,19-tetraoxa-4,10,16,22-tetraazacyclotetracosan-2-yl)methyl)benzyl)-1H-pyrazole-3,5-dicarbonitrile]: the minimal effective concentration in assay [1] lay in the range of 1 to 10 µM; in assay [2], 0.001 to 0.01 µM.

Turning to `COc1cnn(Cc2ccc(C[C@H]3OC(=O)[C@H](CC(C)C)N(C)C(=O)[C@@H](C)OC(=O)[C@H](CC(C)C)N(C)C(=O)[C@@H](Cc4cccc(Cn5cc(OC)cn5)c4)OC(=O)[C@H](CC(C)C)N(C)C(=O)[C@@H](C)OC(=O)[C@H](CC(C)C)N(C)C3=O)cc2)c1` [Example 3-27, (3S,6R,9S,12R,15S,18R,21S,24R)-3,9,15,21-tetraisobutyl-6-(3-((4-methoxy-1H-pyrazol-1-yl)methyl)benzyl)-18-(4-((4-methoxy-1H-pyrazol-1-yl)methyl)benzyl)-4,10,12,16,22,24-hexamethyl-1,7,13,19-tetraoxa-4,10,16,22-tetraazacyclotetracosan-2,5,8,11,14,17,20,23-octaone], the minimal effective concentration in assay [1] lay within 1 to 10 µM.

As for `CC(C)C[C@H]1C(=O)O[C@H](Cc2ccc(CN3CCOCC3)cc2)C(=O)N(C)[C@@H](CC(C)C)C(=O)O[C@H](C)C(=O)N(C)[C@@H](CC(C)C)C(=O)O[C@H](Cc2ccc(CN3CCOCC3)cc2)C(=O)N(C)[C@@H](CC(C)C)C(=O)O[C@H](C)C(=O)N1C` [Example 9-1, (3S,6R,9S,12R,15S,18R,21S,24R)-3,9,15,21-tetraisobutyl-4,6,10,16,18,22-hexamethyl-12,24-bis(4-(morpholinomethyl)benzyl)-1,7,13,19-tetraoxa-4,10,16,22-tetraazacyclotetracosan-2,5,8,11,14,17,20,23-octaone], the minimal effective concentration in assay [1] is 1 to 10 µM.

In the case of `CC(C)C[C@H]1C(=O)O[C@H](Cc2ccc(CN3CCNc4ccccc43)cc2)C(=O)N(C)[C@@H](CC(C)C)C(=O)O[C@H](C)C(=O)N(C)[C@@H](CC(C)C)C(=O)O[C@H](Cc2ccc(CN3CCNc4ccccc43)cc2)C(=O)N(C)[C@@H](CC(C)C)C(=O)O[C@H](C)C(=O)N1C` [Example 9-69, (3S,6R,9S,12R,15S,18R,21S,24R)-6,18-bis[[4-(3,4-dihydro-2H-quinoxalin-1-ylmethyl)phenyl]methyl]-3,9,15,21-tetraisobutyl-4,10,12,16,22,24-hexamethyl-1,7,13,19-tetraoxa-4,10,16,22-tetrazacyclotetracosane-2,5,8,11,14,17,20,23-octaone dihydrochloride], the minimal effective concentration in assay [1] was in the range of 10 to 100 µM.

As to `CC(C)C[C@H]1C(=O)O[C@H](Cc2ccc(CN3CCOCC3)cc2)C(=O)N(C)[C@@H](CC(C)C)C(=O)O[C@H](C)C(=O)N(C)[C@@H](CC(C)C)C(=O)O[C@H](Cc2ccccc2)C(=O)N(C)[C@@H](CC(C)C)C(=O)O[C@H](C)C(=O)N1C` [Example 10-6, (3S,6R,9S,12R,15S,18R,21S,24R)-6-benzyl-3,9,15,21-tetraisobutyl-4,10,12,16,22,24-hexamethyl-18-(4-(morpholinomethyl)benzyl)-1,7,13,19-tetraoxa-4,10,16,22-tetraazacyclotetracosan-2,5,8,11,14,17,20,23-octaone], the minimal effective concentration in assay [1] was in the range of 1 to 10 µM.
